{
  "source": "patent US20240174690A1",
  "about": "“ANNULATED 2-AMINO-3-CYANO THIOPHENES AND DERIVATIVES FOR THE TREATMENT OF CANCER” (BOEHRINGER INGELHEIM INTERNATIONAL GMBH, priority 2021, published 2024)",
  "system": "Caco-2 cell monolayers",
  "test": "Caco-2 assay (permeability PappAB, PappBA, efflux ratio)",
  "assay_type": "in vitro ADME",
  "conditions": "10 μM test compound, pH 7.4",
  "in_short": "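Confluent Caco-2 monolayers on filter supports, 0.25% BSA in both donor and receiver buffer; transport measured a-b and b-a. After 25-30 min preincubation at 37 °C, samples at 0, 30, 60, 90 min quantified by HPLC/MS/MS. Papp from receiver amount per time, filter area and initial donor concentration; efflux ratio = PappBA/PappAB.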",
  "data": [
    {"smiles": "C[C@H](Oc1cc(-c2ccn(C)n2)nc(-c2onc3c2CCC[C@@]32CCCc3sc(N)c(C#N)c32)n1)[C@@H]1CCCN1C", "note": "[I-21]", "values": [
      {"measurement": "Caco PappAB", "setting": "apical to basolateral", "result": 5.1, "unit": "×10⁻⁶ cm/s"},
      {"measurement": "Caco ER", "setting": "efflux ratio PappBA/PappAB", "result": 6.8}
    ]}
  ]
}
